The assay relates to Pseudomonas aeruginosa. The assay can be described thus: Burn wound infection model (mouse superficial skin model, thermal injury), log reduction of Pseudomonas aeruginosa. The format is in vivo, Swiss albino mice. Particulars: orally 25 mg/kg body weight, day 6. On the procedure:
Swiss albino mice were put into six groups and their backs were shaven. Thermal injury was induced in the shaven area by applying a heated brass rod on the back of the animals for 15 seconds to 20 seconds. For establishment of a topical infection, an inoculum containing approximately 2×10^5 bacteria (Pseudomonas aeruginosa) was injected subcutaneously (100 μL) on the sites of the burns. One hour post infection, the mice were treated using 100 mg of cream formulations of different drug concentrations. In case of all the cream formulations, 100 mg cream was applied topically twice daily for 5 days. One of the groups of mice was given Levofloxacin orally at 25 mg/kg body weight as a reference standard.

As to `C[C@H]1COc2c(N3CCN(C)CC3)c(F)cc3c(=O)c(C(=O)O)cn1c23` [Levofloxacin], the “Log reduction of microbial count” value stood at 5.53 log10.
